Measured values from US20240099996A1, “METHODS FOR TREATING CANCER” (Radius Pharmaceuticals, Inc., priority 2015, published 2024).
Where a name gives a salt, the structure may show the parent alone.

Assay: Phase 1 dose escalation study in healthy post-menopausal women, treatment related AEs
Format: in vivo
Procedure: The subjects were 40-75 years old with BMI of 18.0-30 kg/m^2. Subjects having evidence of clinically relevant pathology, increased risk of stroke or of history venous thromboembolic events, or use of concomitant medication less than 14 days prior to admission to clinical research center (paracetamol allowed up to 3 days prior) were excluded. Dosing
The subjects were treated with placebo or at least one dose p.o., q.d. after a light breakfast for 7 days at dose levels of 200 mg, 500 mg, 750 mg and 1000 mg, respectively.

## CCNCCc1ccc(CN(CC)c2cc(OC)ccc2[C@@H]2CCc3cc(O)ccc3C2)cc1 [RAD1901, (6R)-6-(2-(N-(4-(2-(ethylamino)ethyl)benzyl)-N-ethylamino)-4-methoxyphenyl)-5,6,7,8-tetrahydronaphthalen-2-ol dihydrochloride]
200 mg, N = 15
  Abdominal discomfort Gr1: 3 (20) n(%)
  Abdominal discomfort Gr2: 0 n(%)
  Abdominal discomfort Gr3: 0 n(%)
  Abdominal distension Gr1: 1 (7) n(%)
  Abdominal distension Gr2: 1 (7) n(%)
  Abdominal distension Gr3: 0 n(%)
  Abdominal pain Gr1: 2 (13) n(%)
  Abdominal pain Gr2: 2 (13) n(%)
  Abdominal pain Gr3: 0 n(%)
  Diarrhoea Gr1: 0 n(%)
  Diarrhoea Gr2: 0 n(%)
  Diarrhoea Gr3: 0 n(%)
  Dizziness Gr1: 1 (7) n(%)
  Dizziness Gr2: 0 n(%)
  Dizziness Gr3: 0 n(%)
  Dyspepsia Gr1: 3 (20) n(%)
  Dyspepsia Gr2: 0 n(%)
  Dyspepsia Gr3: 0 n(%)
  Dysphagia Gr1: 0 n(%)
  Dysphagia Gr2: 0 n(%)
  Dysphagia Gr3: 0 n(%)
  Flatulance Gr1: 2 (13) n(%)
  Flatulance Gr2: 0 n(%)
  Flatulance Gr3: 0 n(%)
  Headache Gr1: 3 (20) n(%)
  Headache Gr2: 0 n(%)
  Headache Gr3: 0 n(%)
  Hiccups Gr1: 1 (7) n(%)
  Hiccups Gr2: 0 n(%)
  Hiccups Gr3: 0 n(%)
  Hot flush Gr1: 2 (13) n(%)
  Hot flush Gr2: 0 n(%)
  Hot flush Gr3: 0 n(%)
  Myalgia Gr1: 2 (13) n(%)
  Myalgia Gr2: 1 (7) n(%)
  Myalgia Gr3: 0 n(%)
  Nausea Gr1: 5 (33) n(%)
  Nausea Gr2: 0 n(%)
  Nausea Gr3: 0 n(%)
  Odynophagia Gr1: 2 (13) n(%)
  Odynophagia Gr2: 0 n(%)
  Odynophagia Gr3: 0 n(%)
  Oesophageal pain Gr1: 0 n(%)
  Oesophageal pain Gr2: 2 (13) n(%)
  Oesophageal pain Gr3: 0 n(%)
  Salivary hypersecretion Gr1: 2 (13) n(%)
  Salivary hypersecretion Gr2: 0 n(%)
  Salivary hypersecretion Gr3: 0 n(%)
  Sensation of a foreign body Gr1: 2 (13) n(%)
  Sensation of a foreign body Gr2: 0 n(%)
  Sensation of a foreign body Gr3: 0 n(%)
  Vomiting Gr1: 2 (13) n(%)
  Vomiting Gr2: 0 n(%)
  Vomiting Gr3: 0 n(%)
500 mg, N = 14
  Abdominal discomfort Gr1: 0 n(%)
  Abdominal discomfort Gr2: 0 n(%)
  Abdominal discomfort Gr3: 0 n(%)
  Abdominal distension Gr1: 1 n(%)
  Abdominal distension Gr2: 0 n(%)
  Abdominal distension Gr3: 0 n(%)
  Abdominal pain Gr1: 3 n(%)
  Abdominal pain Gr2: 0 n(%)
  Abdominal pain Gr3: 0 n(%)
  Diarrhoea Gr1: 3 n(%)
  Diarrhoea Gr2: 0 n(%)
  Diarrhoea Gr3: 0 n(%)
  Dizziness Gr1: 2 n(%)
  Dizziness Gr2: 0 n(%)
  Dizziness Gr3: 0 n(%)
  Dyspepsia Gr1: 5 n(%)
  Dyspepsia Gr2: 2 (14) n(%)
  Dyspepsia Gr3: 0 n(%)
  Dysphagia Gr1: 1 n(%)
  Dysphagia Gr2: 2 (14) n(%)
  Dysphagia Gr3: 0 n(%)
  Flatulance Gr1: 2 n(%)
  Flatulance Gr2: 0 n(%)
  Flatulance Gr3: 0 n(%)
  Headache Gr1: 1 n(%)
  Headache Gr2: 1 (7) n(%)
  Headache Gr3: 0 n(%)
  Hiccups Gr1: 4 n(%)
  Hiccups Gr2: 0 n(%)
  Hiccups Gr3: 0 n(%)
  Hot flush Gr1: 6 n(%)
  Hot flush Gr2: 0 n(%)
  Hot flush Gr3: 0 n(%)
  Myalgia Gr1: 0 n(%)
  Myalgia Gr2: 1 (7) n(%)
  Myalgia Gr3: 0 n(%)
  Nausea Gr1: 3 n(%)
  Nausea Gr2: 2 (14) n(%)
  Nausea Gr3: 0 n(%)
  Odynophagia Gr1: 1 n(%)
  Odynophagia Gr2: 1 (7) n(%)
  Odynophagia Gr3: 0 n(%)
  Oesophageal pain Gr1: 1 n(%)
  Oesophageal pain Gr2: 3 (21) n(%)
  Oesophageal pain Gr3: 0 n(%)
  Salivary hypersecretion Gr1: 2 n(%)
  Salivary hypersecretion Gr2: 0 n(%)
  Salivary hypersecretion Gr3: 0 n(%)
  Sensation of a foreign body Gr1: 1 n(%)
  Sensation of a foreign body Gr2: 0 n(%)
  Sensation of a foreign body Gr3: 0 n(%)
  Vomiting Gr1: 1 n(%)
  Vomiting Gr2: 5 (36) n(%)
  Vomiting Gr3: 1 (7) n(%)
750 mg, N = 8
  Abdominal discomfort Gr1: 1 (13) n(%)
  Abdominal discomfort Gr2: 1 (13) n(%)
  Abdominal discomfort Gr3: 0 n(%)
  Abdominal distension Gr1: 1 (13) n(%)
  Abdominal distension Gr2: 0 n(%)
  Abdominal distension Gr3: 0 n(%)
  Abdominal pain Gr1: 1 (13) n(%)
  Abdominal pain Gr2: 0 n(%)
  Abdominal pain Gr3: 0 n(%)
  Diarrhoea Gr1: 0 n(%)
  Diarrhoea Gr2: 0 n(%)
  Diarrhoea Gr3: 0 n(%)
  Dizziness Gr1: 1 (13) n(%)
  Dizziness Gr2: 0 n(%)
  Dizziness Gr3: 0 n(%)
  Dyspepsia Gr1: 4 (50) n(%)
  Dyspepsia Gr2: 0 n(%)
  Dyspepsia Gr3: 0 n(%)
  Dysphagia Gr1: 3 (38) n(%)
  Dysphagia Gr2: 1 (13) n(%)
  Dysphagia Gr3: 0 n(%)
  Flatulance Gr1: 1 (13) n(%)
  Flatulance Gr2: 0 n(%)
  Flatulance Gr3: 0 n(%)
  Headache Gr1: 3 (38) n(%)
  Headache Gr2: 0 n(%)
  Headache Gr3: 0 n(%)
  Hiccups Gr1: 2 (25) n(%)
  Hiccups Gr2: 0 n(%)
  Hiccups Gr3: 0 n(%)
  Hot flush Gr1: 2 (25) n(%)
  Hot flush Gr2: 0 n(%)
  Hot flush Gr3: 0 n(%)
  Myalgia Gr1: 1 (13) n(%)
  Myalgia Gr2: 0 n(%)
  Myalgia Gr3: 0 n(%)
  Nausea Gr1: 2 (25) n(%)
  Nausea Gr2: 1 (13) n(%)
  Nausea Gr3: 0 n(%)
  Odynophagia Gr1: 0 n(%)
  Odynophagia Gr2: 0 n(%)
  Odynophagia Gr3: 0 n(%)
  Oesophageal pain Gr1: 1 (13) n(%)
  Oesophageal pain Gr2: 0 n(%)
  Oesophageal pain Gr3: 0 n(%)
  Salivary hypersecretion Gr1: 2 (25) n(%)
  Salivary hypersecretion Gr2: 0 n(%)
  Salivary hypersecretion Gr3: 0 n(%)
  Sensation of a foreign body Gr1: 0 n(%)
  Sensation of a foreign body Gr2: 0 n(%)
  Sensation of a foreign body Gr3: 0 n(%)
  Vomiting Gr1: 0 n(%)
  Vomiting Gr2: 2 (25) n(%)
  Vomiting Gr3: 0 n(%)
1000 mg, N = 7
  Abdominal discomfort Gr1: 0 n(%)
  Abdominal discomfort Gr2: 0 n(%)
  Abdominal discomfort Gr3: 0 n(%)
  Abdominal distension Gr1: 2 (29) n(%)
  Abdominal distension Gr2: 0 n(%)
  Abdominal distension Gr3: 0 n(%)
  Abdominal pain Gr1: 1 (14) n(%)
  Abdominal pain Gr2: 1 (14) n(%)
  Abdominal pain Gr3: 0 n(%)
  Diarrhoea Gr1: 3 (43) n(%)
  Diarrhoea Gr2: 1 (14) n(%)
  Diarrhoea Gr3: 0 n(%)
  Dizziness Gr1: 1 (14) n(%)
  Dizziness Gr2: 0 n(%)
  Dizziness Gr3: 0 n(%)
  Dyspepsia Gr1: 1 (14) n(%)
  Dyspepsia Gr2: 1 (14) n(%)
  Dyspepsia Gr3: 0 n(%)
  Dysphagia Gr1: 0 n(%)
  Dysphagia Gr2: 0 n(%)
  Dysphagia Gr3: 0 n(%)
  Flatulance Gr1: 0 n(%)
  Flatulance Gr2: 0 n(%)
  Flatulance Gr3: 0 n(%)
  Headache Gr1: 2 (29) n(%)
  Headache Gr2: 0 n(%)
  Headache Gr3: 0 n(%)
  Hiccups Gr1: 2 (29) n(%)
  Hiccups Gr2: 0 n(%)
  Hiccups Gr3: 0 n(%)
  Hot flush Gr1: 1 (14) n(%)
  Hot flush Gr2: 0 n(%)
  Hot flush Gr3: 0 n(%)
  Myalgia Gr1: 0 n(%)
  Myalgia Gr2: 0 n(%)
  Myalgia Gr3: 0 n(%)
  Nausea Gr1: 4 (57) n(%)
  Nausea Gr2: 2 (29) n(%)
  Nausea Gr3: 0 n(%)
  Odynophagia Gr1: 1 (14) n(%)
  Odynophagia Gr2: 1 (14) n(%)
  Odynophagia Gr3: 0 n(%)
  Oesophageal pain Gr1: 1 (14) n(%)
  Oesophageal pain Gr2: 1 (14) n(%)
  Oesophageal pain Gr3: 1 (14) n(%)
  Salivary hypersecretion Gr1: 2 (29) n(%)
  Salivary hypersecretion Gr2: 0 n(%)
  Salivary hypersecretion Gr3: 0 n(%)
  Sensation of a foreign body Gr1: 4 (57) n(%)
  Sensation of a foreign body Gr2: 0 n(%)
  Sensation of a foreign body Gr3: 0 n(%)
  Vomiting Gr1: 0 n(%)
  Vomiting Gr2: 3 (43) n(%)
  Vomiting Gr3: 0 n(%)
200-1000 mg p.o., q.d., 7 days
  dose limiting toxicities (DLT): No dose limiting toxicites (DLT) were observed
  maximum tolerated dose (MTD): not established
Total Active, N = 44
  Abdominal discomfort Gr1: 4 n(%)
  Abdominal discomfort Gr2: 1 (2) n(%)
  Abdominal discomfort Gr3: 0 n(%)
  Abdominal distension Gr1: 5 n(%)
  Abdominal distension Gr2: 1 (2) n(%)
  Abdominal distension Gr3: 0 n(%)
  Abdominal pain Gr1: 7 n(%)
  Abdominal pain Gr2: 3 (7) n(%)
  Abdominal pain Gr3: 0 n(%)
  Diarrhoea Gr1: 6 n(%)
  Diarrhoea Gr2: 1 (2) n(%)
  Diarrhoea Gr3: 0 n(%)
  Dizziness Gr1: 5 n(%)
  Dizziness Gr2: 0 n(%)
  Dizziness Gr3: 0 n(%)
  Dyspepsia Gr1: 13 n(%)
  Dyspepsia Gr2: 3 (7) n(%)
  Dyspepsia Gr3: 0 n(%)
  Dysphagia Gr1: 4 n(%)
  Dysphagia Gr2: 3 (7) n(%)
  Dysphagia Gr3: 0 n(%)
  Flatulance Gr1: 5 n(%)
  Flatulance Gr2: 0 n(%)
  Flatulance Gr3: 0 n(%)
  Headache Gr1: 9 n(%)
  Headache Gr2: 1 (2) n(%)
  Headache Gr3: 0 n(%)
  Hiccups Gr1: 9 n(%)
  Hiccups Gr2: 0 n(%)
  Hiccups Gr3: 0 n(%)
  Hot flush Gr1: 11 n(%)
  Hot flush Gr2: 0 n(%)
  Hot flush Gr3: 0 n(%)
  Myalgia Gr1: 3 n(%)
  Myalgia Gr2: 2 (5) n(%)
  Myalgia Gr3: 0 n(%)
  Nausea Gr1: 14 n(%)
  Nausea Gr2: 5 (11) n(%)
  Nausea Gr3: 0 n(%)
  Odynophagia Gr1: 4 n(%)
  Odynophagia Gr2: 2 (5) n(%)
  Odynophagia Gr3: 0 n(%)
  Oesophageal pain Gr1: 3 n(%)
  Oesophageal pain Gr2: 6 (14) n(%)
  Oesophageal pain Gr3: 1 (2) n(%)
  Salivary hypersecretion Gr1: 8 n(%)
  Salivary hypersecretion Gr2: 0 n(%)
  Salivary hypersecretion Gr3: 0 n(%)
  Sensation of a foreign body Gr1: 7 n(%)
  Sensation of a foreign body Gr2: 0 n(%)
  Sensation of a foreign body Gr3: 0 n(%)
  Vomiting Gr1: 3 n(%)
  Vomiting Gr2: 10 (23) n(%)
  Vomiting Gr3: 1 (2) n(%)
Total TEAE, N = 44
  Abdominal discomfort All: 5 n(%)
  Abdominal distension All: 6 n(%)
  Abdominal pain All: 10 n(%)
  Diarrhoea All: 7 n(%)
  Dizziness All: 5 n(%)
  Dyspepsia All: 16 n(%)
  Dysphagia All: 7 n(%)
  Flatulance All: 5 n(%)
  Headache All: 10 n(%)
  Hiccups All: 9 n(%)
  Hot flush All: 11 n(%)
  Myalgia All: 5 n(%)
  Nausea All: 19 n(%)
  Odynophagia All: 6 n(%)
  Oesophageal pain All: 10 n(%)
  Salivary hypersecretion All: 8 n(%)
  Sensation of a foreign body All: 7 n(%)
  Vomiting All: 14 n(%)
